From ChEMBL document CHEMBL1687697 (ACS Med Chem Lett, 2010)
The source made the active and inactive calls. The calls are words filed in the database; no cut-off is given here.

Tests used:
[1] = molecular target: Signal transducer and activator of transcription 3 (Homo sapiens) (UniProt P40763); experiment: Inhibition of STAT3 in human HeLa cells after 24 hrs by luciferase reporter gene assay; type: cell-based
[2] = molecular target: Signal transducer and activator of transcription 3 (Homo sapiens) (UniProt P40763); experiment: Inhibition of STAT3 in human HeLa cells at 5 uM after 24 hrs by luciferase reporter gene assay; type: cell-based

Chain of Signal transducer and activator of transcription 3 (Homo sapiens) (P40763 whole entry): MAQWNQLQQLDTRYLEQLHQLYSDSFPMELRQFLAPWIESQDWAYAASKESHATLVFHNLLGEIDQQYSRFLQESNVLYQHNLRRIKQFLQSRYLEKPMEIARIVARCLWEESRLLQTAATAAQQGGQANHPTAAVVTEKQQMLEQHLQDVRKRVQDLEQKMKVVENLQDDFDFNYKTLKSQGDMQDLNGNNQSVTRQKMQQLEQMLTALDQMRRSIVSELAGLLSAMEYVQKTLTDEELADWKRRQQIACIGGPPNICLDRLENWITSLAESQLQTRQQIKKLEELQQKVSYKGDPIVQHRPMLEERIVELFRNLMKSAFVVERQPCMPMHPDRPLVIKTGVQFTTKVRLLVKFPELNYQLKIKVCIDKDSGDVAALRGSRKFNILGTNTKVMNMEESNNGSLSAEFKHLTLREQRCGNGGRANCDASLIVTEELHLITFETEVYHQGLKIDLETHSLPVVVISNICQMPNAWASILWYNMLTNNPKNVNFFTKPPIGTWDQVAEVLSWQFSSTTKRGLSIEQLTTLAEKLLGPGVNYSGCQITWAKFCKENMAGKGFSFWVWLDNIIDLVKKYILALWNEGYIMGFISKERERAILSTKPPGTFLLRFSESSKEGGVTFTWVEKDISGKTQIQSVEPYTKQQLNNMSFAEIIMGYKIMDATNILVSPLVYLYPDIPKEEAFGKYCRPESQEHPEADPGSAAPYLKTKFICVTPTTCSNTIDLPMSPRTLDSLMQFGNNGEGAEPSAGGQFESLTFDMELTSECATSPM

Row | SMILES | inhibition [1] | inhibition [2]
1 | COc1ccc(C(=O)N2CCCC2=O)cc1 | inactive | –
2 | CCOC(=O)c1c(CSc2ccccc2)n(C)c2cc(Br)c(O)c(CN(C)C)c12 | – | inactive
